We go through one compound from article PMC7011955, “Synthesis and biological evaluation of certain hydrazonoindolin-2-one derivatives as new potent anti-proliferative agents” (Journal of Enzyme Inhibition and Medicinal Chemistry, 2018).

For series [1], the system named is lung cancer A-549 cell line. Kind of series: CellTiter-Glo Luminescent cell viability assay, anti-proliferative activity, A-549. Type of series: cell-based, human. The note with it: Homo sapiens. Here is the method:
(§1) The anti-proliferative activity of the title compounds 3a-e, 5a-e, 7a-c, and 10a-l towards cancer cell lines, normal cell lines, and multidrug-resistant lung cancer NCI-H69AR cell line was determined using CellTiter-Glo™ Luminescent cell viability assay according to the previously published procedures[14]^,[15].
(§2) The cancer cell growth inhibitory activity of the synthesised 25 compounds 3a-e, 5a-e, 7a-c, and 10a-l was evaluated in vitro towards three human cancer cell lines, namely lung cancer A-549, human colon cancer HT-29, and breast cancer ZR-75 cell lines using CellTiter-Glo™ Luminescent cell viability assay. Sunitinib was included in this assay as a reference drug.
(§3) The prepared hydrazonoindolin-2-ones were first evaluated at preliminary anti-proliferative assay against the three cancer cell lines in quadruplicate at a single concentration of 30 µM. The data presented as percentage growth inhibition (GI%) caused by the test compounds (Table 1).
Background: ATP-based viability assays read luminescence as a measure of living cells.

Series [2] has as its system breast cancer ZR-75 cell line. The experiment in a line: CellTiter-Glo Luminescent cell viability assay, anti-proliferative activity, ZR-75. Type of series: cell-based. To be noted: Homo sapiens, ZR75; 30 µM single concentration, quadruplicate; read-out: Growth inhibition % ZR-75. Here is the method:
as §1, §2, §3

Series [3] has as its system colon cancer HT-29 cell line. The experiment in a line: CellTiter-Glo Luminescent cell viability assay, anti-proliferative activity, HT-29. Type of series: cell-based, human. To be noted: Homo sapiens, HT-29; 30 µM single concentration, quadruplicate; read-out: Growth inhibition % HT-29. On the procedure:
as §1, §2, §3

Series [4] deals with A-549, ZR-75 and HT-29 cell lines. Kind of series: Average anti-proliferative activity over the three cancer cell lines. Type of series: cell-based, human. To be noted: average over A-549, ZR-75, HT-29. On the procedure:
as §1, §2, §3

The test system of series [5] is A-549 cells. Kind of series: Reduction in total cell number, DAPI labeling and imaging cytometry. Type of series: cell-based. The note with it: Homo sapiens, A549. Here is the method:
(§4) Cell cycle effects of the synthesised compounds 7b and 10e were determined adopting the reported procedures[14]^,[15].
(§5) In this study, cancer cells derived from lung adenocarcinoma (A-549) were used to evaluate the effects of compounds 7b and 10e on various aspects of the cell cycle progression. Both immunofluorescent imaging of phosphorylated Rb protein and total DNA content of each cell were explored to determine the activity of compounds 7b and 10e over a range of concentrations less than 100 nM to 50 µM (Figures 3–5).
Figure 3. Effects on number and cell cycle distribution. A-549 cells were treated with dose curve. Compound 7b (left) or 10e (right). […]

Series [6] deals with phosphorylated retinoblastoma (Rb) protein in A-549 cells. The experiment in a line: Immunofluorescent imaging of phosphorylated Rb protein. Type of series: cell-based, human. The note with it: for IC50: Homo sapiens, A549. Here is the method: as §4, §5
The subject of series [7] is A-549 cells. Kind of series: Cell cycle distribution by DNA content. Type of series: cell-based, human. On the procedure: as §4, §5
Figure 3. Effects on number and cell cycle distribution. A-549 cells were treated with dose curve. Compound 7b (left) or 10e (right). Cell number per cell cycle was determined by DNA content by DAPI fluorescent labeling and imaging cytometry following 48 h treatment.

In another series the test system is Intestine IEC-6 cells. The experiment in a line: Cell growth inhibition, non-tumorigenic IEC-6. The note with it: Rattus norvegicus, maximum 25 µM, quadruplicate. Type of series: cell-based. Here is the method: as §1
(§6) The cell growth inhibitory activity of compounds 7b and 10e was examined towards three non-tumorigenic cell lines to estimate their selectivity for tumor cells. A-549 human non-small cell lung cancer (NSCLC) cell line was included in the assay for comparison. […] IEC-6 cells derived from rat intestine show morphologic and karyotypic features of normal intestinal epithelial cells. Fibroblasts derived from embryonic tissue from mice (Swiss-3t3) are both non-tumorigenic and contact inhibited. Compounds 7b and 10e were tested quadruplicate at maximum concentrations of 25 µM, with subsequent 10 serially diluted concentrations.

Another series deals with Breast MCF-10A cells. The experiment in a line: Cell growth inhibition, non-tumorigenic MCF-10A. Type of series: cell-based. To be noted: Homo sapiens, maximum 25 µM, quadruplicate. On the procedure: as §1, §6
Series [8] deals with Fibroblast Swiss-3t3 cells. Kind of series: Cell growth inhibition, non-tumorigenic Swiss-3t3. Type of series: cell-based, mice. The note with it: Mus musculus, maximum 25 µM, quadruplicate. Here is the method: as §1, §6
In series [9] the test system is NCI-H69AR cell line (expresses ABCC1 efflux pump). Kind of series: Growth inhibition of multidrug resistant lung cancer cell line. Type of series: cell-based. On the procedure:
as §1
The anti-proliferative activity of compounds 7b and 10e was evaluated towards multidrug resistant lung cancer cell line (NCI-H69AR), which expresses the ABCC1 efflux pump protein. […] Furthermore, the H69AR cells manifested a lesser degree of resistance to the reference drug, Sunitinib (1.9-fold less sensitive).

Series [10] has as its system IEC-6, MCF-10A, Swiss-3t3 vs A-549 cell lines. The experiment in a line: Mean tumor selectivity index, non-tumorigenic lines vs A-549. Type of series: cell-based. The note with it: non-tumorigenic IEC-6, MCF-10A.
Source text: as §6

Series [11] has as its system breast cancer ZR-75 cell line. The experiment in a line: CellTiter-Glo Luminescent cell viability assay, anti-proliferative activity, ZR-75. To be noted: Homo sapiens, ZR75, mean ± SD of four separate experiments. Type of series: cell-based, human.
Series [12] concerns colon cancer HT-29 cell line. The experiment in a line: CellTiter-Glo Luminescent cell viability assay, anti-proliferative activity, HT-29. The note with it: Homo sapiens, mean ± SD of four separate experiments. Type of series: cell-based.

The structures appear in SMILES notation. Entries after “also recorded” stand apart in the source; their conditions may differ. Where two headings read alike, the source gives them in different places.

Turning to `O=C1Nc2ccc(Cl)cc2C1=NNc1nc(-c2ccccc2)cs1` [Compound 10e, 5-Chloro-3–(2-(4-phenylthiazol-2-yl)hydrazono)indolin-2-one], the melting point fell in the range of 292 to 294 °C. Moreover, the IC50 in series [1] (A549, mean ± SD of four separate experiments, read-out: IC50 A-549) turned out to be 4.79 ± 0.45 µM. In series [1] (A549, selectivity assay, maximum 25 µM, quadruplicate, read-out: IC50 NSCLC A-549), the IC50 came out at 4.13 ± 0.61 µM. For the same compound, in series [1] (A549, sensitive line in comparison with resistant NCI-H69AR, read-out: IC50 Sensitive A-549), the 50% inhibitory concentration (IC50) was determined as 4.1 ± 0.61 µM. The inhibition at 30 µM in [1] (A549, 30 µM single concentration, quadruplicate, read-out: Growth inhibition % A-549) turned out to be 80.4 ± 6%. For the same compound, the inhibition at 30 µM in series [2] came out at 89.3 ± 7.2%. Besides, the inhibition at 30 µM in series [3] is 85.7 ± 10.2%. In addition, the “Average growth inhibition %” value in series [4] (30 µM) worked out at 85.1%. Besides, in series [4] (Homo sapiens, 30 µM, read-out: Average growth inhibition %), the inhibition at 30 µM is more than 80%. Besides, the IC50 in series [4] (Homo sapiens) stood at 4.66 µM. Besides, the half-maximal inhibitory concentration (IC50) with A-549 cells [5] (A-549, 24 h treatment, read-out: IC50 for reductions in the total cell number, 24 h) is 7.38 ± 1.04 µM. Moreover, the IC50 in the series on A-549 cells [5] (A-549, 48 h treatment, read-out: IC50 for reductions in the total cell number, 48 h) is 7.27 ± 1.15 µM. In [6] (A-549, less than 100 nM to 50 µM), the “levels of phosphorylated Rb protein” value was “significantly reduced in a dose-dependent manner”. Moreover, the concentration for half-maximal inhibition (IC50) in series [6] (A-549, 24 h treatment, read-out: IC50 for reduction in Rb phosphorylation, 24 h) was determined as 7.59 ± 0.38 µM. Besides, the concentration for half-maximal inhibition (IC50) in series [6] (A-549, 48 h treatment, read-out: IC50 for reduction in Rb phosphorylation, 48 h) was 12.5 ± 2.1 µM. Also, in the series on A-549 cells [7], the Cell cycle effects result is “increase in the percentage of cells in the G1 phase of the cell cycle with corresponding decreases in S- and G2/M phases; also recorded: G1 increased and G2/M-phases decreased”. The IC50 in the series on Intestine IEC-6 cells amounted to 8.98 ± 1.25 µM. Also, the concentration for half-maximal inhibition (IC50) in the series with Breast MCF-10A cells was found to be 5.37 ± 0.61 µM. For the same compound, in series [8], the IC50 is 8.51 ± 1.01 µM. Moreover, in [9], inhibition was half-maximal at 16 µM (IC50). The Mean tumor selectivity in series [10] is on record as 1.8. For the same compound, the half-maximal inhibitory concentration (IC50) in series [11] was found to be 1.95 ± 1.03 µM. The compound further gave an IC50 in [12] of 7.25 ± 0.83 µM.

One may read the IC50 as the concentration at which inhibition is half-maximal. By inhibition is commonly meant the percentage by which the read-out fell short of the control. Broadly, the melting point is the temperature, or range, at which the solid turns liquid.
